Measured values from US20090048301A1 (IMCLONE SYSTEMS INCORPORATED, priority 2003, published 2009).

Legend:
[1] = tested on: A431 human cancer cell line; assay: Sulphorhodamine B (SRB) growth inhibition assay; type: cell-based; settings: A-431, A431 cells, 48 hours, read-out: SRB Assay: μM required to inhibit tumor cell growth by 50% (GI50)
Experimental: The in vitro growth inhibition activity of the compounds was determined by the Sulphorhodamine B assay. (Skehan P, Storeng R, Scudiero D, Monks A, McMahon J, Vistica D, Warren J T, Bokesch H, Kenney S, Boyd M R. New colorimetric cytotoxicity assay for anticancer-drug screening. J Natl Cancer Inst 82, 1107-1112, 1990). Sulphorhodamine B binds to basic amino acids and stains proteins which can be eluted and detected spectrophotometically by measuring absorbance at 515 nm. The absorbance was indicative of the total protein content of the cells fixed to the walls of the plate well at a given time by trichloroacetic acid, which is a measure of the viable cell concentration.
The in vitro growth inhibition activity of the compounds was determined using a Sulphorhodamine B assay. See, Skehan et al., “New colorimetric cytotoxicity assay for anticancer-drug screening,” J. Natl. Cancer Inst., 82, 1107-1112, (1990). Sulphorhodamine B binds to basic amino acids and stains proteins which can be eluted and detected spectrophotometically by measuring absorbance at 515 nm. The absorbance indicates the total protein content of the cells fixed to the walls of the plate well at a given time by trichloroacetic acid, which is a measure of the viable cell concentration.
The reagents used in the assay can be purchased from commercial sources and include Sulphorhodamine B 0.4% (w/v) in 1% (v/v) acetic acid (Sigma Cat#S-1402); trichloroacetic acid 50% (w/v) in deionized water, working solution (Sigma Cat#T-9159); and trizma base (Tris) 10 mM working solution, pH 7.5 (Sigma Cat#T-7693).
The procedure was cared out over four days. In Day 1, the cells were seeded in a seed 10,000 cells/100 μL/well in 96 well plate in duplicates as per template. Also, seed cells in extra plate for time zero (To plate). Thereafter, the cells were incubated for 24 hours at 37° C. with 5% CO2.
On Day 2, the test compound was added to the cells at five log doses from 100 μM to 0.01 μM (Volume of addition=100 μL in 1% DMSO for all compound concentrations, Control treatment=1% DMSO).
The compounds were prepared by weighing the test compounds in 1.5 ml eppendorf tubes and calculating the volume of DMSO to be added to bring the concentration of the compound to 20 mM. Thereafter, a 20 mM stock was made and diluted by four 10 fold dilutions in DMSO to get 2, 0.2, 0.02 and 0.002 mM solutions. Each solution was diluted 100 times (10 μL to 1 ml medium) and a further addition to the culture plate (100 μL) to half the concentration of cells was made. The final well concentration for 20 mM stock was 100 μM and similarly with other test concentrations.
The cells were incubated for 48 hours at 37° C. with 5% CO2 and terminated by adding 50 μL of 50% cold trichloroacetic acid (10% to final). Thereafter, the cells were incubated for one hour at 4° C.
On Day 4, the cells were fixed to the wells by the addition of 50 μL of 50% cold trichloroacetic acid (10% to final) and incubated for 1 hour at 4° C. The supernatant was discarded by force inverting the plate into the sink followed by washing thrice with tap water and the plates are then air-dried. 100 μL SRB (0.4% in 1% acetic acid) was added to each well and the plates were incubated for 10 minutes at room temperature. Unbound dye was removed by force inverting the plate into the sink and washing thrice with 1% acetic acid. Thereafter, the plates were allowed to air dry.
Bound SRB was solubilized with 100 μL of 10 mM Tris, pH 7.4 and the absorbance was measured at a wavelength of 515 nm.
A sample set of calculations was performed as follows. The percentage growth was calculated by T-To/C-To X 100 if T>To and T-To/To X 100 if T<To, wherein T is Test OD (with compound), C is Control OD, To is Time Zero OD (cell growth at the time of drug addition). […]

[2] = tested on: A431, human epidermoid carcinoma cells; assay: Cell cycle analysis (FACS), mitotic arrest in G2/M; type: cell-based; settings: Homo sapiens, A-431, 24 h, read-out: FACS Assay: concentration required to achieve inhibition in FACS assay
How it was run: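 A431 cells, 500,000/well at treatment, exposed to compounds at 0.01–1 μM final (0.1% DMSO) for 24 h. Ethanol-fixed cells RNase-treated (1 μg/ml, 37° C., 15 min), stained with propidium iodide (50 μg/ml, 30 min, RT). DNA ploidy by flow cytometry; mitotic arrest scored as G2/M accumulation.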

bovine tubulin = assay: In vitro tubulin polymerization assay (turbidity at 340 nm); type: biochemical; settings: 10 μM compound, 30 minute data point, vs 1% DMSO control
How it was run: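 Bovine tubulin (97%, <3% MAPs) at 3 mg/ml final in G-PEM pH 7 with 1 mM GTP and 5% glycerol, added cold to compound wells at 37° C (1% DMSO final). A340 read each minute for 30 min; percent inhibition from 30-min point versus DMSO control.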

In the case of `COc1cc(Nc2nnc(-c3cccnc3Nc3cc(OC)cc(OC)c3)[nH]2)cc(OC)c1` [Compound 1, (3,5-Dimethoxy-phenyl)-{3-[5-(3,5-dimethoxy-phenylamino)-4H-[1,2,4]triazol-3-yl]-pyridin-2-yl}-amine], the GI50 [1] is reported as 5.5 µM, the minimal effective concentration [2] is reported as 0.1 µM and the “Tubulin Assay: percent inhibition at 10 μM based on 30 minute data” value (“Tubulin Assay: percent inhibition” below) (bovine tubulin) is reported as 45%.

For `COc1cccc(Nc2nnc(-c3cccnc3Nc3cc(OC)cc(OC)c3)[nH]2)c1` [Compound 2, (3,5-Dimethoxy-phenyl)-{3-[5-(3-methoxy-phenylamino)-4H-[1,2,4]triazol-3-yl]-pyridin-2-yl}-amine], the GI50 [1] was 0.7 µM, the minimal effective concentration [2] was 0.1 µM and the “Tubulin Assay: percent inhibition” value (bovine tubulin) was 80%.

`COc1ccc(Nc2nnc(-c3cccnc3Nc3cc(OC)cc(OC)c3)[nH]2)cc1` [Compound 3, (3,5-Dimethoxy-phenyl)-{3-[5-(4-methoxy-phenylamino)-4H-[1,2,4]triazol-3-yl]-pyridin-2-yl}-amine] was tested, and the GI50 [1] was 2.5 µM, the minimal effective concentration [2] was 10 µM and the “Tubulin Assay: percent inhibition” value (bovine tubulin) was 72%.

In the case of `COc1cc(Nc2ncccc2-c2nnc(Nc3ccc(C#N)cc3)[nH]2)cc(OC)c1` [Compound 4, 4-{5-[2-(3,5-Dimethoxy-phenylamino)-pyridin-3-yl]-4H-[1,2,4]triazol-3-ylamino}-benzonitrile], the GI50 [1] is reported as 4 µM, the minimal effective concentration [2] is reported as 10 µM and the “Tubulin Assay: percent inhibition” value (bovine tubulin) is reported as 32%.

For `COc1cc(Nc2ncccc2-c2nnc(Nc3cc(OC)ccc3OC)[nH]2)cc(OC)c1` [Compound 5, (3,5-Dimethoxy-phenyl)-{3-[5-(2,5-dimethoxy-phenylamino)-4H-[1,2,4]triazol-3-yl]-pyridin-2-yl}-amine], the GI50 [1] was 10 µM, the minimal effective concentration [2] was 100 µM and the “Tubulin Assay: percent inhibition” value (bovine tubulin) was 20%.

For `COc1cc(Nc2ncccc2-c2nnc(Nc3ccc(N(C)C)cc3)[nH]2)cc(OC)c1` [Compound 6, (3,5-Dimethoxy-phenyl)-{3-[5-(4-dimethylamino-phenylamino)-4H-[1,2,4]triazol-3-yl]-pyridin-2-yl}-amine], the GI50 [1] was 20 µM, the minimal effective concentration [2] was 10 µM and the “Tubulin Assay: percent inhibition” value (bovine tubulin) was 35%.

In the case of `COc1cccc(Nc2nnc(-c3cccnc3Nc3ccc4c(c3)OCO4)[nH]2)c1` [Compound 7, Benzo[1,3]dioxol-5-yl-{3-[5-(3-methoxy-phenylamino)-4H-[1,2,4]triazol-3-yl]-pyridin-2-yl}-amine], the GI50 [1] is reported as 15 µM, the minimal effective concentration [2] is reported as 10 µM and the “Tubulin Assay: percent inhibition” value (bovine tubulin) is reported as 47%.

With `CN(C)c1ccc(Nc2nnc(-c3cccnc3Nc3ccc4c(c3)OCO4)[nH]2)cc1` [Compound 11, Benzo[1,3]dioxol-5-yl-{3-[5-(4-dimethylamino-phenylamino)-4H-[1,2,4]triazol-3-yl]-pyridin-2-yl}-amine] the GI50 [1] was 0.25 µM, the minimal effective concentration [2] was 10 µM and the “Tubulin Assay: percent inhibition” value (bovine tubulin) was 82%.

`COc1cccc(Nc2nnc(-c3cccnc3NCc3ccc4c(c3)OCO4)[nH]2)c1` [Compound 13, Benzo[1,3]dioxol-5-ylmethyl-{3-[5-(3-methoxy-phenylamino)-4H-[1,2,4]triazol-3-yl]-pyridin-2-yl}-amine] was tested, and the GI50 [1] was 2 µM, the minimal effective concentration [2] was 1 µM and the “Tubulin Assay: percent inhibition” value (bovine tubulin) was 80%.

For `COc1ccc(OC)c(Nc2nnc(-c3cccnc3NCc3ccc4c(c3)OCO4)[nH]2)c1` [Compound 14, Benzo[1,3]dioxol-5-ylmethyl-{3-[5-(2,5-dimethoxy-phenylamino)-4H-[1,2,4]triazol-3-yl]-pyridin-2-yl}-amine], the GI50 [1] was 20 µM, the minimal effective concentration [2] was 100 µM and the “Tubulin Assay: percent inhibition” value (bovine tubulin) was 24%.

In the case of `CN(C)c1ccc(Nc2nnc(-c3cccnc3NCc3ccc4c(c3)OCO4)[nH]2)cc1` [Compound 15, Benzo[1,3]dioxol-5-ylmethyl-{3-[5-(4-dimethylamino-phenylamino)-4H-[1,2,4]triazol-3-yl]-pyridin-2-yl}-amine], the GI50 [1] is reported as 0.2 µM, the minimal effective concentration [2] is reported as 100 µM and the “Tubulin Assay: percent inhibition” value (bovine tubulin) is reported as 20%.

With `COc1ccc(Nc2nnc(-c3cccnc3NCc3ccc4c(c3)OCO4)[nH]2)c(OC)c1` [Compound 17, Benzo[1,3]dioxol-5-ylmethyl-{3-[5-(2,4-dimethoxy-phenylamino)-4H-[1,2,4]triazol-3-yl]-pyridin-2-yl}-amine] the GI50 [1] was 4 µM, the minimal effective concentration [2] was 10 µM and the “Tubulin Assay: percent inhibition” value (bovine tubulin) was 80%.

For `COc1cccc(Nc2nnc(-c3cccnc3Nc3ccc4cn[nH]c4c3)[nH]2)c1` [Compound 18, (1H-Indazol-6-yl)-{3-[5-(3-methoxy-phenylamino)-4H-[1,2,4]triazol-3-yl]-pyridin-2-yl}-amine], the GI50 [1] was 1.5 µM, the minimal effective concentration [2] was 1 µM and the “Tubulin Assay: percent inhibition” value (bovine tubulin) was 70%.

In the case of `COc1cccc(Nc2nnc(-c3cccnc3NCc3cccnc3)o2)c1` [Compound 185, {3-[5-(3-Methoxy-phenylamino)-[1,3,4]oxadiazol-2-yl]-pyridin-2-yl}-pyridin-3-ylmethyl-amine], the GI50 [1] is reported as 30 µM and the “Tubulin Assay: percent inhibition” value (bovine tubulin) is reported as 40%.

`COc1cccc(Nc2nnc(-c3cccnc3NCc3ccc4c(c3)OCO4)o2)c1` [Compound 186, Benzo[1,3]dioxol-5-ylmethyl-{3-[5-(3-methoxy-phenylamino)-[1,3,4]oxadiazol-2-yl]-pyridin-2-yl}-amine] was tested, and the GI50 [1] was 100 µM and the “Tubulin Assay: percent inhibition” value (bovine tubulin) was 42%.

`COc1cc(Nc2nnc(-c3cccnc3Nc3cc(OC)cc(OC)c3)o2)cc(OC)c1` [Compound 187, (3,5-Dimethoxy-phenyl)-{3-[5-(3,5-dimethoxy-phenylamino)-[1,3,4]oxadiazol-2-yl]-pyridin-2-yl}-amine] was tested, and the GI50 [1] was 80 µM and the “Tubulin Assay: percent inhibition” value (bovine tubulin) was 48%.

In the case of `COc1ccc(Nc2nnc(-c3cccnc3NCc3cccnc3)o2)cc1OC` [Compound 190, {3-[5-(3,4-Dimethoxy-phenylamino)-[1,3,4]oxadiazol-2-yl]-pyridin-2-yl}-pyridin-3-ylmethyl-amine], the GI50 [1] is reported as 15 µM and the “Tubulin Assay: percent inhibition” value (bovine tubulin) is reported as 56%.

For `O=C1CCCN1CCCNc1ncccc1-c1nnc(Nc2ccc3c(c2)OCO3)o1` [Compound 194, 1-(3-{3-[5-(Benzo[1,3]dioxol-5-ylamino)-[1,3,4]oxadiazol-2-yl]-pyridin-2-ylamino}-propyl)-pyrrolidin-2-one], the GI50 [1] was 3 µM and the “Tubulin Assay: percent inhibition” value (bovine tubulin) was 80%.

With `c1ccc(-c2nnc(Nc3ccc4c(c3)OCO4)o2)c(NCc2ccncc2)c1` [Compound 225, Benzo[1,3]dioxol-5-yl-(5-{2-[(pyridin-4-ylmethyl)-amino]-phenyl}-[1,3,4]oxadiazol-2-yl)-amine] the GI50 [1] was 15 µM and the “Tubulin Assay: percent inhibition” value (bovine tubulin) was 91%.
